Test results reported in patent publication US20240325548A1, “DYNAMIC BIOACTIVE SCAFFOLDS AND THERAPEUTIC USES THEREOF AFTER CNS INJURY” (Northwestern University, priority 2021, published 2024).

Key:
[1] = test system: hNPCs; experiment: Neuronal differentiation of hNPCs treated with IKVAV PAs (TUJ-1+ cells); type: cell-based, human
Text: (§1) Neural progenitor cells (NPCs) were differentiated from human embryonic stem cells HUES 64 (Harvard University) (see FIG. 2C). In short, 70% confluent stem cell cultures grown in Matrigel (Thermo Fisher) coated plates with mTESR medium (STEMCELL Technologies), were switched to N2B27 medium (50% DMEM: F12, 50% Neurobasal, supplemented with NEAA, Glutamax, N2 and B27; Gibco) containing dual SMAD inhibitors (SB431542, DNSK International and LDN-193189, Tocris) for 12 days to induce the generation of neural progenitors. Neuralization was enhanced by supplementing medium with laminin from day 5 to 12. Next, neural rosettes were dissociated with neural rosette selection reagent (STEMCELL Technologies) to obtain NPCs, which are expanded in N2B27 (Gibco) medium supplemented with bFGF (Millipore). For experimentation in the different PA platforms, NPCs were dissociated with Accutase (Innovative Cell technology), and cultured in the distinct platforms with DMEM: F12+N2+B27 medium with hyclone penicillin-streptomycin (GE Healthcare) and ascorbic acid (0.2 μg/mL; Sigma-Aldrich).
(§2) For IKVAV PA treatments, hNPCs were cultured on ornithine coatings (German Glass, Chemglass Life Science) in 6 well and 24 well plates at a density of 500,000 cells/well and 80,000 cells/well respectively. hNPCs were treated with […] of IKVAV PAs ([PA]=6 mM, [KCl]=3 mM, [NaCl]=150 mM) or recombinant laminin protein (10 mg/mL) in solution. IKVAV PA2 and IKVAV PA5 were also mixed with 5 mM CaCl2) at a ratio PA:CaCl2) 6:1 to treat hNPCs. For 2D experiments, hNPCs were cultured on the different IKVAV PAs or laminin coatings in 6 well and 24 well plates at densities mentioned above. For co-assembled experiments, hNPCs were cultured on the different co-assembled PA coatings in 6 well and 24 well plates at a density of 400,000 cells/well and 50,000 cells/well respectively.
(§3) hNPCs were fed 4 times a week with DMEM: F12+N2^+B27 medium with hyclone penicillin-streptomycin and ascorbic acid. After 24 h, 72 h 1- or 2-weeks in vitro, cell lysates were harvested or fixed for WB or ICC, respectively. Three replicates per condition and at least three independent experiments were carried out for all conditions investigated.
(§4) For immunofluorescence, fixed primary cultures or free-floating tissue sections (40 m Thick) were incubated in blocking buffer containing 0.02% Triton-X (Sigma-Aldrich), 1% NHS (Gibco) and PBS 1× (Gibco). Samples were incubated with primary antibodies over night at 4° C. Alexa-488, Alexa-555 and/or Alexa-647 (1:500, Thermofisher) were used as secondary antibodies. DAPI (1:500, Thermofisher) was used to stain nuclei. Finally, the samples were mounted on coverslips with Immu-Mount (Fisher Scientific) solution for imaging.
For in vitro cell quantification, image files were imported into NIH Image J (1.51) software and the “analyze particles” and “cell counter” functions were used to measure the total number of cells in a determined area. Serial tissue sections were stained with NeuN and ChAT using free-floating immunostaining were quantified using Nikon Elements software. The rostral and caudal borders of the lesions were chosen as the first cross-sections that had NeuN staining in all four gray matter horns. 8 sections within the lesion were chosen per animal and expressed as number of neurons per section. Automated multichannel image acquisition, image stitching, and z-stack reconstruction ([…]) were carried out on a Nikon GasP R1 confocal microscope to image the entire selected cross-section for NeuN and Chat markers for all conditions.

[2] = biological target: T1, β1-INTEGRIN (ITGB1) (Homo sapiens, UniProt P05556); experiment: ITGB1 activation and intracellular signaling in hNPCs treated with IKVAV PAs (confocal microscopy, WB); type: cell-based
T1 construct: endogenous in cells; host or cells: hNPCs differentiated from human embryonic stem cells HUES 64
T1 sequence (P05556 21-798): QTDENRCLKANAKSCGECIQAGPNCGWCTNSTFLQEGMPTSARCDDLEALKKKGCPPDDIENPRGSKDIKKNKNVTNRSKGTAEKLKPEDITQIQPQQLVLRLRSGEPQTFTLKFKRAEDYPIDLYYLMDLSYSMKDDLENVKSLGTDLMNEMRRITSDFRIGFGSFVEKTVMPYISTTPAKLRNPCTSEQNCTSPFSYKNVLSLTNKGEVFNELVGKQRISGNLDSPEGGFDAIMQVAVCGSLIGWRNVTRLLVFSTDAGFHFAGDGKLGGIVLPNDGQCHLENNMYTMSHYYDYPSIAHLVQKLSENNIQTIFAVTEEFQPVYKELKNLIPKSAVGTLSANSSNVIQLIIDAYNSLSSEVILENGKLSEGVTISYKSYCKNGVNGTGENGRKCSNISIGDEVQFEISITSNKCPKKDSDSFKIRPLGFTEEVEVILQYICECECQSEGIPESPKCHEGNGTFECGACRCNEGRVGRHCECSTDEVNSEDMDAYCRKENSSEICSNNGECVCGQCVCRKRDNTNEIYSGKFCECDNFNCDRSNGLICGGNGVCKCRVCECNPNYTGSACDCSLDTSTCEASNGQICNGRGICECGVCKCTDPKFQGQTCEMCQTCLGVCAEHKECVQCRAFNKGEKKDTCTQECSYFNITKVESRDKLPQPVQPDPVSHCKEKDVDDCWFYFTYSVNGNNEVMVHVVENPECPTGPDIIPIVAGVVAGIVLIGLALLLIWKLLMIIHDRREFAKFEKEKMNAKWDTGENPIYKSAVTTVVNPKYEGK
Text: as §1, §2, §3, §4
RIPA buffer (Thermofisher) with a cocktail of Halt Protease and Phosphatase Inhibitors (Thermofisher) was used to extract protein from in vitro and in vivo samples. For in vivo studies, spinal cord tissue was then sonicated using a horn sonicator (Branson) to break up the tissue. A Pierce™ BCA Protein Assay Kit (Thermofisher) was used to determine protein content for all samples used. Protein extracts obtained from cell cultures or tissue were separated using an SDS-polyacrylamide gel and electro-transferred to a nitrocellulose membrane (Bio-Rad). Membranes were blocked for 30 minutes to 1 hour using a 5% milk solution (Bio-Rad) and incubated over night with primary antibodies. Corresponding secondary HRP-conjugated antibodies (1:1000, ThermoFisher) were used for 1 h at room temperature. Radiance Bioluminescent ECL substrate (Azure Biosystems) was used to detect protein signal. The membranes were imaged using the Azure Biosystems imager and densitometry analysis were performed using ImageJ software.

[3] = T2-NMR spin-spin relaxation rate of PA assemblies; type: physicochemical; details: T2 relaxation of K residue of IKVAV PAs, no Ca2+
Protocol: NMR spectra were acquired at 600 MHz on a Tecmag NMR spectrometer using a Doty diffusion probe with a sweep width of 6 kHz and 16k data points or at 600 MHz on a Brucker Neo system with QCI-F cryoprobe.
NMR spectra for IKVAV PAs were recorded at 25° C. using TFA-d, H2O/D2O in 9/1 ratio (D2O contains 0.05 wt. % 3-(trimethylsilyl) propionic-2,2,3,3-d4 acid, sodium salt) as solvents. Chemical shifts are reported in part per million (ppm). Structural assignment was performed using ^1H,^1H-gCOSY, ^1H,^13C-gHSCQAD, TOCSY and NOESY. Multiplicities are quoted as singlet (s), doublet (d), multiplets (m), doublet of doublets (dd), doublet of doublet of doublets (ddd), triplet (t), quartet (q). The […] and typical spectra required 32 scans. Additional scans (512) were required for accurate estimation of the aromatic signal intensity since the epitope containing aromatic protons was present at only 10 mol %.
The spin-spin relaxation rates were measured using the Carr-Purcell-Gill-Meiboom pulse sequence with a delay time of 0.2 ms in a variable loop. The peak intensity data was fit to and exponential in the form:
where τ is the length of the delay time, R2 is the spin-spin relaxation rate and b are the baseline.

[4] = test system: murine model of severe spinal cord injury (SCI); experiment: Glial scar, GAP-43, MBP, laminin and fibronectin in the SCI lesion (immunofluorescence, WB); details: mouse, in vivo
Protocol: All experiments were conducted at the Simpson Querrey Institute at Northwestern University. 182 CD1 mice (Charles River) were subjects of this study (N=38 Sham, N=38 IKVAV PA2 alone, N=38 IKVAV PA2+FGF2 PA1, N=38 IKVAV PA2+FGF2 PA2, N=12 IKVAV PA1, N=12 Backbone PA, N=6 IKVAV PA4). The age of animals used in the study was in the range of 10-16 weeks. 8 independent in vivo experiments were carried out (injury+PA injection) and each of the 8 experiments had animals of the exact same age which were injected with at least the 4 main treatment groups: Sham, IKVAV PA2 alone, IKVAV PA2+FGF2 PA1, and IKVAV PA2+FGF2 PA2. Animals were anesthetized using 2.5% isoflurane gas with oxygen. A laminectomy was performed to expose the spinal cord at the T10-T11 spinal level. A severe contusive injury was performed using the Infinite Horizon Spinal Cord Impactor system (IH-0400 Precision Systems and Instrumentation) with 85 kdyn of impact force and a dwell time of 60 s. […]
PAs (dissolved in sterile NaCl 0.9% solution at 1 wt %) were injected 24 h after SCI using a glass capillary micropipette (Sutter Instruments, Novato, CA) (outer diameter, 100 m) coated with Sigmacote (Sigma-Aldrich) to reduce surface tension as described elsewhere (19). […] The micropipette was lowered to a depth of 750 m measured from the dorsal surface of the cord, and 4-6 μL of the diluted amphiphile solution was injected at 1 L/min. […]

[5] = test system: murine model of severe spinal cord injury (SCI); experiment: Corticospinal tract (CST) axon regrowth after SCI (BDA tracing); type: in vivo, mouse; details: 12 weeks after injury, BDA-labeled axons
Protocol: All experiments were conducted at the Simpson Querrey Institute at Northwestern University. 182 CD1 mice (Charles River) were subjects of this study (N=38 Sham, N=38 IKVAV PA2 alone, N=38 IKVAV PA2+FGF2 PA1, N=38 IKVAV PA2+FGF2 PA2, N=12 IKVAV PA1, N=12 Backbone PA, N=6 IKVAV PA4). The age of animals used in the study was in the range of 10-16 weeks. 8 independent in vivo experiments were carried out (injury+PA injection) and each of the 8 experiments had animals of the exact same age which were injected with at least the 4 main treatment groups: Sham, IKVAV PA2 alone, IKVAV PA2+FGF2 PA1, and IKVAV PA2+FGF2 PA2. Animals were anesthetized using 2.5% isoflurane gas with oxygen. A laminectomy was performed to expose the spinal cord at the T10-T11 spinal level. A severe contusive injury was performed using the Infinite Horizon Spinal Cord Impactor system (IH-0400 Precision Systems and Instrumentation) with 85 kdyn of impact force and a dwell time of 60 s. After the lesion, the skin was sutured using 9 mm wound clips (BD Biosciences) and the animals were recovered on a heating pad to maintain body temperature. Bladders were manually expressed daily during the entire 12 weeks of the experiment.
PAs (dissolved in sterile NaCl 0.9% solution at 1 wt %) were injected 24 h after SCI using a glass capillary micropipette (Sutter Instruments, Novato, CA) (outer diameter, 100 m) coated with Sigmacote (Sigma-Aldrich) to reduce surface tension as described elsewhere (19). The capillaries were loaded onto a Hamilton syringe using a female Luer adaptor (World Precision Instruments) controlled by a Micro4 microsyringe pump controller (World Precision Instruments). Under isoflurane anesthesia, autoclips were removed and the injury site was exposed. At 24 h post injury, the laminectomy in the spinal column was still intact and the bruise created by the lesion was visible. A stereotaxic Kopf apparatus was used to position the micropipette just dorsal to the lesion. The micropipette was lowered to a depth of 750 m measured from the dorsal surface of the cord, and 4-6 μL of the diluted amphiphile solution was injected at 1 L/min. […]
Axons labeled using BDA (Thermofisher, N7167) or stained with 5HT (Abcam) were quantified using Imaris® software version 9.3 as previously described (21). Lines were drawn across longitudinal spinal cord sections from the proximal border (PB) to the distal border (DB) of the SCI lesion at consistent distances and the number of axons intercepting the lines drawn was counted by researchers that were blinded to the experimental conditions. Multiple sections through the middle of the cord, where BDA or 5HT staining was denser, were counted per mouse and expressed as total intercepts per location, per animal. […]

[6] = test system: hNPCs; experiment: hNPC attachment, proliferation and phenotype on co-assembled PA coatings (EdU, SOX-2, PAX6); type: cell-based, human
Text: as §1, §2, §3
For the hNPCs proliferation assay, 2 μM of the thymidine analog 5-ethynyl-2′-deoxyuridine (EdU, Thermo Fisher) was incorporated into the culture medium for 24 h. Cells were fixed at the indicated time points in 4% paraformaldehyde (PFA) for 15 min at RT. After fixation, samples were washed in PBS twice and then stained with Click-iT™ EdU Cell Proliferation Kit containing 11 mM CuSO4 (from 50 mM stock) and 1 μg/mL of Alexa Fluor-555 azide (from 0.5 mg/mL, Thermo Fisher) for 30 minutes at RT in the dark. The staining cocktail was then removed, and cells were washed with PBS. Then, hNPCs were counterstained with anti-rabbit SOX-2 antibody following the immunofluorescence protocol described below and 4′, 6-diamidino-2-phenylindole (DAPI, Thermo Fisher) at 5 μg/mL in PBS for 20 min at RT. The cells were then washed with PBS and mounted with Immu-Mount (Fisher Scientific) for imaging.
as §4, with “Finally, the samples were mounted on coverslips with Immu-Mount (Fisher Scientific) solution for imaging.” left out

| Substance | in vitro bioactivity (summary) [2] | R2 [3] [s⁻¹] | percentage of induction of TUJ-1+ neuronal cells [1] [%] | glial scar (reactive astrocytes, GFAP) at the borders of the injury [4] | CST axon regrowth within the lesion [5] | percentage of proliferating EdU+ and SOX2+ cells [6] | percentage of neuronal progenitor cells PAX6+ ([6]; one week later) |
| --- | --- | --- | --- | --- | --- | --- | --- |
| C16-V2A2E2 (VVAAEE) [Backbone PA] | – | – | – | dense population of reactive astrocytes expressing high levels of GFAP | hardly observed | – | – |
| laminin | – | – | – | – | – | decreased significantly | increased percentage |

Further lines, with some results ahead:

| in vitro bioactivity (summary) [2] | R2 [3] [s⁻¹] | Substance | percentage of induction of TUJ-1+ neuronal cells [1] [%] | glial scar (reactive astrocytes, GFAP) at the borders of the injury [4] | CST axon regrowth within the lesion [5] | percentage of proliferating EdU+ and SOX2+ cells [6] | percentage of neuronal progenitor cells PAX6+ ([6]; one week later) |
| --- | --- | --- | --- | --- | --- | --- | --- |
| low level of in vitro bioactivity | 4.5 ± 0.7 | C16-AVG2E4GIKVAV [IKVAV PA3] | 7.5±0.6 | – | – | – | – |
| low level of in vitro bioactivity | 4.5 ± 0.2 | C16-A4E4GIKVAV [IKVAV PA8] | 7.5±0.5 | – | – | – | – |
| low level of in vitro bioactivity | 6.0 ± 0.03 | C16-AVA2E4GIKVAV [IKVAV PA7] | 7.4±0.6 | – | – | – | – |
| low level of in vitro bioactivity | 6.1 ± 0.8 | C16-VA3E4GIKVAV [IKVAV PA6] | 7.9±1.3 | – | – | – | – |
